For test [1], the target named is Ba/F3 cells transformed with Tel-KDR (Homo sapiens, UniProt P35968). The following applies: read-out: IC50 in BaF3/Tel-KDR cellular assay. On the procedure:
(§1) Luciferase expressing Ba/F3 murine pro-B cells are transformed with Tel-Syk, Tel-Zap70 or Tel-KDR. Cells are maintained in RPMI/10% fetal calf serum (RPMI/FCS) supplemented with penicillin 50 μg/mL, streptomycin 50 μg/mL and L-glutamine 200 mM. Untransformed Ba/F3 cells are similarly maintained with the addition of murine recombinant IL3. Cells are dispensed into 384-well format plate at 5000 cell/well in 50 μL of culture medium. Compounds of the invention are dissolved and diluted in dimethylsufoxide (DMSO). Twelve points 1:3 serial dilutions are made into DMSO to create concentrations gradient ranging from 10 mM to 0.05 μM. Cells are added with 50 nL of diluted compounds and incubated for 48 hours in cell culture incubator. Luminiscent signal is measured following the addition of Bright Glo® (Promega) luciferase substrate. IC50 values are calculated by linear regression analysis of the percentage inhibition of each compound at 12 concentrations.
(§2) Compounds of the invention are tested for their antiproliferative effect on Ba/F3 cells expressing either Tel-TrkA, Tel-TrkB or Tel-TrkC and an additional panel of 34 selected diverse kinases activated by fusion to the dimerizing partners Bcr or Tel (Abl, AlK, BMX, EphA3, EphB2, FGFR2, FGFR3, FGFR4, FGR, FLT1, FLT3, FLT4, FMS, IGF1R, InsR, JAK1, JAK2, JAK3, KDR, Kit, Lck, Lyn, MER, MET, PDGFRb, RET, RON, Ros-1, Src, Syk, TIE2, TYK2, Tie1, ZAP70). The antiproliferative effect of these compounds on the different cell lines and on the non transformed cells were tested at 12 different concentrations of 3-fold serially diluted compounds in 384 well plates as described above (in media lacking IL3). The IC50 values of the compounds the different cell lines were determined from the dose response curves obtained as describe above.

The target in test [2] is Ba/F3 cells transformed with Tel-Syk (Homo sapiens, UniProt P43405). The following applies: read-out: IC50 in BaF3/Tel-Syk cellular assay. On the procedure:
as §1, §2

In another test the target is CHK2 (Homo sapiens (Human), UniProt O96017). Description: Caliper LabChip mobility-shift kinase assay, single point. The test is classed as biochemical. The following applies: at a concentration of 5 μM. On the procedure: (§3) In addition, compounds of Formula (I) were assessed for their ability to inhibit individual kinases utilizing Caliper Life Sciences' proprietary LabChip™ technology. A partial, non-limiting list of kinases includes: Syk, ZAP70, KDR, FMS, FLT3, c-Kit, RET, TrkA, TrkB, TrkC, IGR-1R, Alk and c-FMS kinases. The off-chip incubation mobility-shift kinase assay uses a microfluidic chip to measure the conversion of a fluorescent peptide substrate to a phosphorylated product. The reaction mixture, from a microtiter plate well, is introduced through a capillary sipper onto the chip, where the nonphosphorylated substrate and phosphorylated product are separated by electrophoresis and detected via laser induced fluorescence. […] The phosphorylated product migrates through the chip faster than the non-phosphorylated substrate, and signals from the two forms of the peptide appear as distinct peaks. Caliper's data analysis software (HTSWA) determines peak heights, from which the ratio of product to the peak sum P/(P+S) and percent (%) conversion is calculated. This value is used to compare compound wells to control wells present on the plate, and thereby determine the % inhibition values for the compound.
(§4) Generally, 12 μL of enzyme buffer containing purified kinase (various amount; various suppliers), 100 mM HEPES, pH 7.5, 1 mM DTT (Calbiochem, 2333153), 10 mM MgCl2 (Sigma, M-1028) or 10 mM MnCl2 (Sigma, M-1787) (assay specific), and 0.002% Brij-35 (Sigma, B4184) are added to each well. Compound and enzyme are allowed to pre-incubate for 15 minutes. 12 μL of peptide/ATP buffer containing 100 mM HEPES, pH 7.5, 1.5 μM fluorescein-labeled peptide (specific to kinase of interest), ATP (at KM apparent, Sigma, A9187), and 0.002% Brij-35 is then added to each well to initiate the reaction. The final concentration of DMSO in the well is 4%. Generally, reactions are incubated for 1 to 1.5 hours at room temperature to obtain adequate conversion of peptide to phosphorylated product in the linear range of the reaction. Reactions are terminated with the addition of 45 μL of Stop Buffer (containing 20 mM EDTA). Plates are then read on the LabChip 3000 using a 12-sipper LabChip. % conversion values and % inhibition values are obtained as described and IC50 curves of compounds are generated using GraphPad Prism Version 4 or 5.01, or XLfit Version 4.3.2. When using GraphPad Prism, a nonlinear curve fit using the sigmoidal dose response—variable slope fit was used to graph IC50 curves and determine IC50 values and hillslopes. When using XLfit, Fit Model 205 (4-Parameter Logistic Model) is used to generate and fit the IC50 curve.

The target of the next test is TRKA (Homo sapiens (Human), UniProt P04629). Described as above. The test is classed as biochemical. The following applies: at a concentration of 5 μM. As for the experimental part:
as §3, §4

Another test concerns the target JAK2 (Homo sapiens (Human), UniProt O60674). The description is as above. The following applies: at a concentration of 5 μM. The format is biochemical. As for the experimental part: as §3, §4
The target in the next test is KDR (Homo sapiens (Human), UniProt P35968). Described as above. The test is classed as biochemical. The following applies: at a concentration of 5 μM. As for the experimental part:
as §3, §4

The target in a further test is RET (Homo sapiens (Human), UniProt P07949). Described as above. The test is classed as biochemical. The following applies: at a concentration of 5 μM. As for the experimental part:
as §3, §4

The target in another test is Abl (Homo sapiens (Human), UniProt P00519). The description is as above. The test is classed as biochemical. The following applies: at a concentration of 5 μM. On the procedure:
as §3, §4

The target in another test is FLT3 (Homo sapiens (Human), UniProt P36888). The test is described as above. The following applies: at a concentration of 5 μM. The test is classed as biochemical. As for the experimental part: as §3, §4
For the next test, the target named is FMS (Homo sapiens (Human), UniProt P07333). The test is described as above. The test is classed as biochemical. The following applies: at a concentration of 5 μM. As for the experimental part:
as §3, §4

For test [3], the target named is Ba/F3 cells expressing Tel-FMS (Homo sapiens, UniProt P07333). The following applies: read-out: IC50 in BaF3/Tel-FMS cellular assay. On the procedure:
as §2

The target in test [4] is Ba/F3 cells transformed with human Tel-TrkA (Homo sapiens, UniProt P04629). The following applies: read-out: IC50 in BaF3/Tel-TRKA cellular assay. On the procedure:
as §2

The target of test [5] is Ba/F3 cells transformed with Tel c-Kit (Homo sapiens, UniProt P10721). The following applies: read-out: IC50 in BaF3/Tel-KIT cellular assay. On the procedure: as §2
The target of test [6] is Ba/F3 cells expressing Tel-FLT3 (Homo sapiens, UniProt P36888). The following applies: read-out: IC50 in BaF3/Tel-FLT3 cellular assay. As for the experimental part:
as §2

Drawing on US8546370B2, “Compounds and compositions as kinase inhibitors” (IRM LLC, priority 2008, dated 2013), this text covers IC50 and inhibition for 2 compounds.

The structures appear in SMILES notation.

Chain of Ba/F3 cells transformed with Tel c-Kit (P10721 26-976 limits assumed, change not shown): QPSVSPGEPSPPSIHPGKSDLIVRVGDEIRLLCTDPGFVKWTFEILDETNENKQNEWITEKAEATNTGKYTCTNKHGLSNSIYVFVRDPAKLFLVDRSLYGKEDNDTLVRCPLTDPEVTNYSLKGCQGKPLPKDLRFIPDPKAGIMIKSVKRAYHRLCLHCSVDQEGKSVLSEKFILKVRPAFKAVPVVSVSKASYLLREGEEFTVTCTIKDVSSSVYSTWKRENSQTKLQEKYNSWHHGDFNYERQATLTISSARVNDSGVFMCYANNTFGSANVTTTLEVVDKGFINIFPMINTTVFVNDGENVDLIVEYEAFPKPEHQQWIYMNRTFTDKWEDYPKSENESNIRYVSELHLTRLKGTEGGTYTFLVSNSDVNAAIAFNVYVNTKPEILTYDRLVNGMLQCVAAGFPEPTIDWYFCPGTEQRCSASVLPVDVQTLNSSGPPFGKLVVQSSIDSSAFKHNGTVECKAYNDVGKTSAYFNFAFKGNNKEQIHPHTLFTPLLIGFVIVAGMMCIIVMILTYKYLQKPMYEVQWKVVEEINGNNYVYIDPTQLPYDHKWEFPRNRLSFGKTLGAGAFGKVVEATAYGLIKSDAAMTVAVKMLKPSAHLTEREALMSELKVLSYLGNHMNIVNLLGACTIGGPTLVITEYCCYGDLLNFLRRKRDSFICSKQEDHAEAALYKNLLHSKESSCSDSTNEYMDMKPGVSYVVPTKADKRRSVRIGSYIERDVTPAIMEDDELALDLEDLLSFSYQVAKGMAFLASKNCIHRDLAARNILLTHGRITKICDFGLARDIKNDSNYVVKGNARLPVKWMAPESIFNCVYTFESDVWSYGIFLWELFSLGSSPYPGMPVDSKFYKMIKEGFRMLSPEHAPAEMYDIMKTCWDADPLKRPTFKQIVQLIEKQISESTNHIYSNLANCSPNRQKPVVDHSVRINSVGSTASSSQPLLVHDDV
Chain of Ba/F3 cells transformed with Tel-KDR (P35968 20-1356 limits assumed, change not shown): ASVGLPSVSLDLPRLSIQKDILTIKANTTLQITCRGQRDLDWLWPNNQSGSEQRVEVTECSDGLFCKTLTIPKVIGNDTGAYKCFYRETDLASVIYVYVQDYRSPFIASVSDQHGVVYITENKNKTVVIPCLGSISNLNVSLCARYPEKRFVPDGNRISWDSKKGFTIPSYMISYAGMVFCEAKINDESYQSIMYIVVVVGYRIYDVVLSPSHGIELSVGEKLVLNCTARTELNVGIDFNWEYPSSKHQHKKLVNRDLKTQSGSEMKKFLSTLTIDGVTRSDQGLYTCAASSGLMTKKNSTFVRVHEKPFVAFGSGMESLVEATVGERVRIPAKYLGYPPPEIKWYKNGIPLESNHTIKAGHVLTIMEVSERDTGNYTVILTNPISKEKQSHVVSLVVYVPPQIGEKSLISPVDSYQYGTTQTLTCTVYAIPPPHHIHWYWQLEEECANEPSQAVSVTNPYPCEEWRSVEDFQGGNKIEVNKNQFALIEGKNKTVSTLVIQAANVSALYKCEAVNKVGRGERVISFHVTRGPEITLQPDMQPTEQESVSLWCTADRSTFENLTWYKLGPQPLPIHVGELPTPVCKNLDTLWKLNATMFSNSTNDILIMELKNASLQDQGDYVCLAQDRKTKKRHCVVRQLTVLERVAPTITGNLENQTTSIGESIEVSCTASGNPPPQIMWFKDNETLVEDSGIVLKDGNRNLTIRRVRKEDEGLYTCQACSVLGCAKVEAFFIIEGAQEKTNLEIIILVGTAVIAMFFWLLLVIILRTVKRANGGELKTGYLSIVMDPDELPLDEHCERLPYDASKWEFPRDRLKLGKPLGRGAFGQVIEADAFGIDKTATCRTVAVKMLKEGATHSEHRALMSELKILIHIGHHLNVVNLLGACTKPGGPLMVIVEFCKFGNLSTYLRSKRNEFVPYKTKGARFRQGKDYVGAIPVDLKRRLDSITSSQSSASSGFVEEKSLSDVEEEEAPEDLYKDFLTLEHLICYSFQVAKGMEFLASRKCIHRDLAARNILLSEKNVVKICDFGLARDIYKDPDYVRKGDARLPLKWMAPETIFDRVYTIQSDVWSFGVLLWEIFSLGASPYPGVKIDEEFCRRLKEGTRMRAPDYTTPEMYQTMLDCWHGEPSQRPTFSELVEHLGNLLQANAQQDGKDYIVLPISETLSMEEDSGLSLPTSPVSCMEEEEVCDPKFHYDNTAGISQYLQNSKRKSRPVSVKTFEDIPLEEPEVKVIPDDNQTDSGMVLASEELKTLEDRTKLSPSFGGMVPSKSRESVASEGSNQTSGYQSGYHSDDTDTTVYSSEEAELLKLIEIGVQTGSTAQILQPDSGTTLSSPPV
Chain of Ba/F3 cells expressing Tel-FMS (P07333 20-972 limits assumed, change not shown): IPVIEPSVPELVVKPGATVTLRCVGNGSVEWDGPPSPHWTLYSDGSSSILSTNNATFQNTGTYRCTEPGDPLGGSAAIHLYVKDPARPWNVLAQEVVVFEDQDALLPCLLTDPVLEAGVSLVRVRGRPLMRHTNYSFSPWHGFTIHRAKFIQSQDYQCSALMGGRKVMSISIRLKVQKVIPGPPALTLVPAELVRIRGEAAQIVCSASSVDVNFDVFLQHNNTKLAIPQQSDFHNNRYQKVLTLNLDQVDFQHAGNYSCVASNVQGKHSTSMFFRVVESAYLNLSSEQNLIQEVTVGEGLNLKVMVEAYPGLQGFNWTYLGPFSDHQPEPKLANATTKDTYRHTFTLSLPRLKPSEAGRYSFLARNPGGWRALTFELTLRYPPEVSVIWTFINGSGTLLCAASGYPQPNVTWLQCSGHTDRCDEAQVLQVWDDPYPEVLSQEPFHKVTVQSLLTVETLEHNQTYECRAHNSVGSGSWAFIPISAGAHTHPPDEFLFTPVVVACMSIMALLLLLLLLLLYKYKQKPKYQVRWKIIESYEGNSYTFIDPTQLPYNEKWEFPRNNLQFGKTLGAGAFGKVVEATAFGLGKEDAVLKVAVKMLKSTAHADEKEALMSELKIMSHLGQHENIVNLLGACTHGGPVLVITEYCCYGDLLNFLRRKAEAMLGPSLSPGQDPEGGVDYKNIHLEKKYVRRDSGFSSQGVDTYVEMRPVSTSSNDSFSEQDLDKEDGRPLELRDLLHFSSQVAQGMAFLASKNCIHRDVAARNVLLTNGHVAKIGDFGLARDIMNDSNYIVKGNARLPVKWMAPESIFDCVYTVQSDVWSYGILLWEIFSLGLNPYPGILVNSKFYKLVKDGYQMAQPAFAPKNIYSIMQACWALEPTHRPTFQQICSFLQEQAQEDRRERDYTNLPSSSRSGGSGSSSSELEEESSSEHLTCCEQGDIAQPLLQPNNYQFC
Chain of Ba/F3 cells transformed with human Tel-TrkA (P04629 33-796 limits assumed, change not shown): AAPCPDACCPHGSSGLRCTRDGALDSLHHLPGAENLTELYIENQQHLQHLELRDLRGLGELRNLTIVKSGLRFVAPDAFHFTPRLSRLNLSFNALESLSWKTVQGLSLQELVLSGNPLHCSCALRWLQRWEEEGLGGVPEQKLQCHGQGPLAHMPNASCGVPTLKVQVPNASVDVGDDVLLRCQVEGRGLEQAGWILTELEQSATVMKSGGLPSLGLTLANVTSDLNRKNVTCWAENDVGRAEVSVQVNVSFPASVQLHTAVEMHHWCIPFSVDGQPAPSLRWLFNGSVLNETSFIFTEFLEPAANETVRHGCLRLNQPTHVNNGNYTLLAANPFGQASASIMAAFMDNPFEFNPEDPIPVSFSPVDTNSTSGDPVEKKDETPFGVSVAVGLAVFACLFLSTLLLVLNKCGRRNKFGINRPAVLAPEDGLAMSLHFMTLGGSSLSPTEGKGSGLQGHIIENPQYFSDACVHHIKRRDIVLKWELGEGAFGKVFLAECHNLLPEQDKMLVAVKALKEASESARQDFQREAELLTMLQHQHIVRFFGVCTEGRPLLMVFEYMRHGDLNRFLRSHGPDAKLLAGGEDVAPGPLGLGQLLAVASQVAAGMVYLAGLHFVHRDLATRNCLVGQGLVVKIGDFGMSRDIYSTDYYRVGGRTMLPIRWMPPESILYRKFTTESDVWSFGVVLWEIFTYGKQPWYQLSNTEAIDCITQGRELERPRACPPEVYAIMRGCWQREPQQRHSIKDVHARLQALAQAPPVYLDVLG
Chain of KDR (P35968 20-1356, species assumed): as the sequence (P35968 20-1356 limits assumed, change not shown) above
Chain of FMS (P07333 20-972, species assumed): as the sequence (P07333 20-972 limits assumed, change not shown) above
Chain of TRKA (P04629 33-796, species assumed): as the sequence (P04629 33-796 limits assumed, change not shown) above
Chain of Ba/F3 cells expressing Tel-FLT3 (P36888 27-993 limits assumed, change not shown): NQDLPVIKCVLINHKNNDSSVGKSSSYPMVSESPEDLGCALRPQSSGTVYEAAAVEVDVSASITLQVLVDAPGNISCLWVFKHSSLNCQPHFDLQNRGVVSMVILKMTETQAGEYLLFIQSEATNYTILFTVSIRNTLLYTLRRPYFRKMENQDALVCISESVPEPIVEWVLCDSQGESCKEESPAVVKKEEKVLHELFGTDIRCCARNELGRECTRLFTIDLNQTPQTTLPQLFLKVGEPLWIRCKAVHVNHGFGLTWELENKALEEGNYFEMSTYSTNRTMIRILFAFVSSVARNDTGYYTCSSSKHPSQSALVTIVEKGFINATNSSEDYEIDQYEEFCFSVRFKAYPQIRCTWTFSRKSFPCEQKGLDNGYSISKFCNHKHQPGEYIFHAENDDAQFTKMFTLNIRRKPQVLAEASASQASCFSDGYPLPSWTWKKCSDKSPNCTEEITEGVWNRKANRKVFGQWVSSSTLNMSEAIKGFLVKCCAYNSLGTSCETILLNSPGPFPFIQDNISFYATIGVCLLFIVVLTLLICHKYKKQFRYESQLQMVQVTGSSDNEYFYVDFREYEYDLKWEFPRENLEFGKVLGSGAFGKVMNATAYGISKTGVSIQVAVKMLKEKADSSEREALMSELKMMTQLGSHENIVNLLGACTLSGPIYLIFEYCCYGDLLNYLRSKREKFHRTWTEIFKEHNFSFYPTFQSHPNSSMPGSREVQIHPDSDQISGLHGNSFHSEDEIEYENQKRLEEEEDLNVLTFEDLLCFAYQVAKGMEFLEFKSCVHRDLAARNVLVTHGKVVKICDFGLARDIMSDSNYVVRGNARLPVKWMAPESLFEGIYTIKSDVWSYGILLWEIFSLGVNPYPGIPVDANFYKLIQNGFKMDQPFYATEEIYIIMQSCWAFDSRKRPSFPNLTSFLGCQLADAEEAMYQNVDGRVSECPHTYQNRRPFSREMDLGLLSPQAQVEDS

`O=c1[nH]ccc2cc(-c3ccccc3)nc(Nc3ccc(N4CCOCC4)cc3)c12` [No 11, 8-(4-morpholinophenylamino)-6-phenyl-2,7-naphthyridin-1(2H)-one]: the IC50 in test [1] came to 0.27 µM; in [2] it was 0.15 µM; in test [3], 0.02 µM; in test [4], 0.07 µM; in [5] it was 0.02 µM. Further, the inhibition (in general, the change of the read-out against control, counted positive when it falls) at 5 µM on CHK2 came out at 94%; at TRKA, 74%; at JAK2, 96%; at KDR, 96%; at RET, 99%; on Abl it was 100%. The figures for the inhibition at 5 µM on FLT3 and on FMS were 100% and 84%, respectively.
Consider `CCN1CCN(c2cc3cc[nH]c(=O)c3c(Nc3ccc(N4CCOCC4)cc3)n2)CC1` [No 83, 8-(4-morpholinophenylamino)-6-(4-ethylpiperazin-1-yl)-2,7-naphthyridin-1(2H)-one], for which the IC50 worked out at 5 µM in test [1]; 0.12 µM in test [2]; 0.5 µM in test [3]; 0.53 µM in test [6]; 0.49 µM in [4]; 1.22 µM in test [5].
